Laboratory results from US7141598B2, “Imidazole derivatives, production method thereof and use thereof” (Takeda Pharmaceutical Company, Ltd., priority 2000, dated 2006).
pIC50: −log10 of the molar value.

How the values were obtained:
[1] = molecular target: T1, steroid C17,20-lyase (Rattus norvegicus, UniProt P11715); test: Assay of steroid C17,20-lyase-inhibitory activity in rat (testis microsome); type: biochemical; conditions: male SD rat orchis microsome, 10 nM [1.2-3H]-17α-hydroxyprogesterone, 37° C., 7 min; read-out: IC50 (steroid C17,20-lyase inhibition)
T1 construct: The orchis was homogenized and centrifuged to prepare a microsome; from tissue; host or cells: testis (orchis) microsomes of 13-week-old male SD rat
T1 sequence (P11715 1-507): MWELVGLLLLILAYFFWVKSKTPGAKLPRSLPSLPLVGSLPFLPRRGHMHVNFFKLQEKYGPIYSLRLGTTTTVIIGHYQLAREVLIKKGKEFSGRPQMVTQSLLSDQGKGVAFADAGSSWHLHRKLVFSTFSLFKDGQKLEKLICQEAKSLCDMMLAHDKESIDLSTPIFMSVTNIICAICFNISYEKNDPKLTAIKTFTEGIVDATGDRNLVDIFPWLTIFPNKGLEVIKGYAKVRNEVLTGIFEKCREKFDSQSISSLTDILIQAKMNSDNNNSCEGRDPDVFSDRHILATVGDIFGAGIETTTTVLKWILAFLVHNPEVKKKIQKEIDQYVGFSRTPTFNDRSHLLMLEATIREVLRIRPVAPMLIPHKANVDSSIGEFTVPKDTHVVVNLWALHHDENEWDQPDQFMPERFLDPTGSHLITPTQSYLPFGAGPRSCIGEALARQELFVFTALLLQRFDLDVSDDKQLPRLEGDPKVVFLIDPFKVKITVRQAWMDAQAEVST
Protocol: Assay of steroid C17,20-Lyase-Inhibitory Activity in Rat
The assay was performed according to The Prostate, Vol. 26, 140–150 (1995).
The orchis was removed from 13-week-old male SD rat. The orchis was homogenized and centrifuged to prepare a microsome. The [1.2-^3H]-17α-hydroxyprogesterone having a final concentration of 10 nM, NADPH solution and the test compound were dissolved in a 100 mM phosphate buffer solution (10 μl, pH 7.4). Microsome protein (7 μg/10 μl) was added and the mixture was incubated at 37° C. for 7 min. Ethyl acetate (40 μl) was added and the mixture was centrifuged, and the substrate and the product (androstenedione and testosterone) in the supernatant were separated by a silica gel thin layer chromatography (TLC). The spot was detected and quantitatively assayed by a BAS 2000 bioimage analyzer.

[2] = test system: testosterone biosynthesis; test: Assay of inhibitory effect on testosterone biosynthesis in rats; type: in vivo; conditions: 25 mg/kg oral, male SD rat, serum testosterone 2 h after administration, relative to control group
Protocol: Assay of Inhibitory Effect on Testosterone Biosynthesis in Rats
The test compound (25 mg/kg) was orally administered to 9-week-old male SD (Sprague Dawley) rat. Blood was taken at 2 h after administration of the compound and the concentration of testosterone in the obtained serum was assayed by radioimmunoassay. The proportion (T/C, %) of testosterone concentration of the test drug administration group relative to the testosterone concentration of the control group was calculated to determine testosterone synthesis-inhibitory activity.

[3] = molecular target: T2, human CYP3A4 (Homo sapiens, UniProt P08684); test: Assay of human CYP3A4-inhibitory activity; type: biochemical; conditions: testosterone 100 μM, human CYP3A4 10 pmol/ml, 37° C., 30 min; read-out: IC50 (CYP3A4 inhibition, 6β-hydroxytestosterone production)
T2 construct: purchased GENTEST
T2 sequence (P08684 whole entry): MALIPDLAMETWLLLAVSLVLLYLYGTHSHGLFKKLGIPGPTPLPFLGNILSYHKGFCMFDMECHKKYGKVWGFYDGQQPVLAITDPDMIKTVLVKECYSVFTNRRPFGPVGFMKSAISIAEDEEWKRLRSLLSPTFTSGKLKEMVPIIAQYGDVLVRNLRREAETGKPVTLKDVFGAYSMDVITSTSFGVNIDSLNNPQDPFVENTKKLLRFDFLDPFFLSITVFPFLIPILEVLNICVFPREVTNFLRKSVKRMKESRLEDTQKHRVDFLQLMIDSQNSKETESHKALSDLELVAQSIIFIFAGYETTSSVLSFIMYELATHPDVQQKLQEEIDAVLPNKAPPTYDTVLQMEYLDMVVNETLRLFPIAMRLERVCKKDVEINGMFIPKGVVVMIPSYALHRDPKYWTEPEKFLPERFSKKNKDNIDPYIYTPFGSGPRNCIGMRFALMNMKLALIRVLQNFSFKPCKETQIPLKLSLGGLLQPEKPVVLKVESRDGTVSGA
Protocol: Assay of Human CYP3A4-Inhibitory Activity
Performed as in the following according to Journal of Biological Chemistry, vol. 256, 11937 (1983).
A phosphate buffer solution (50 mM, pH 7.4) containing testosterone (final concentration 100 μM, hereinafter the same), human CYP3A4 (10 pmol/ml, manufactured by GENTEST), NADPH producing system (0.5 mM NADP, 5 mM glucose-6-phosphate, 5 mM magnesium chloride, 1.5 units/ml glucose-6-phosphate dehydrogenase) and the test compound was incubated at 37° C. for 30 min. Acetonitrile was added to the reaction mixture and the mixture was stirred and centrifuged. The 6β-hydroxytestosterone in the obtained supernatant was analyzed by high performance liquid chromatography.

Row | pIC50 [1] | pIC50 [3] | Compound | inhibitory effect on testosterone biosynthesis (T/C, %) [2] [%]
1 | 7.32 | – | CNC(=O)c1ccc2cc(C3(O)CCn4cncc43)ccc2c1 (single isomer, unassigned; (+)) [Example 11, (+)-6-(7-hydroxy-6,7-dihydro-5H-pyrrolo[1,2-c]imidazol-7-yl)-N-methyl-2-naphthamide] | –
2 | 8.00 | 5.02 | OC1(c2cccc(-c3ccc(F)cc3)c2)CCn2cncc21 (stereo not shown) [Example 3, 7-(4′-fluoro[1,1′-biphenyl]-3-yl)-6,7-dihydro-5H-pyrrolo[1,2-c]imidazol-7-ol] | 4.4
3 | 7.60 | < 5.00 | OC1(c2ccc(-c3ccc(F)cc3)cc2)CCn2cncc21 (stereo not shown) [Example 4, 7-(4′-fluoro[1,1′-biphenyl]-4-yl)-6,7-dihydro-5H-pyrrolo[1,2-c]imidazol-7-ol] | –
4 | 7.27 | – | CNC(=O)c1ccc2cc(C3(O)CCn4cncc43)ccc2c1 (stereo not shown) [Example 5, 6-(7-hydroxy-6,7-dihydro-5H-pyrrolo[1,2-c]imidazol-7-yl)-N-methyl-2-naphthamide] | –
